BigSolDB 2.1

Nc1ccc(S(=O)(=O)Nc2ncccn2)cc1
solubility (mole fraction)
Conditions | 278.15 K | 283.15 K | 288.15 K | 293.15 K | 298.15 K | 303.15 K | 308.15 K | 313.15 K | 318.15 K
in acetonitrile | 0.000316 | 0.000385 | 0.000465 | 0.000532 | 0.000602 | 0.000666 | 0.000775 | 0.000865 | 0.000935
in methanol | 7.1e-05 | 9.5e-05 | 0.000132 | 0.000162 | 0.000191 | 0.000236 | 0.00029 | 0.00034 | 0.000384
